From patent US11607466B2, “Tumor and immune cell imaging based on PD-L1 expression” (The Johns Hopkins University, priority 2016, dated 2023)

Assays:
PD-L1 in hPD-L1 cells = molecular target: T1, PD-L1 in hPD-L1 cells (Homo sapiens, UniProt Q9NZQ7); assay: In vitro binding of [64Cu]WL12 to hPD-L1 and CHO cells; assay type: cell-based
T1 construct: expressed in transfected cells; grown as tumours in NSG mice for the in vivo units
Experimental: (§1) 1.4.9. […] After incubation, cells were washed three times with cold PBS prior to counting on an automated gamma counter (1282 Compugamma CS, Pharmacia/LKBNuclear, Inc., Gaithersburg, Md.). […] Mean fluorescence intensity values were correlated with % incubated dose (% ID) uptake. All the cell uptake studies were performed in triplicate for each cell line and repeated three times.

PD-L1 in MDAMB231 cells = molecular target: T2, PD-L1 in MDAMB231 cells (Homo sapiens, UniProt Q9NZQ7); assay: In vitro binding of [64Cu]WL12 to MDAMB231 and SUM149 cells; assay type: cell-based; settings: 1 h incubation
T2 construct: MDAMB231 breast cancer cells, which naturally express PD-L1; endogenous in cells; host or cells: MDAMB231 (ATCC)
T2 sequence (Q9NZQ7 19-290): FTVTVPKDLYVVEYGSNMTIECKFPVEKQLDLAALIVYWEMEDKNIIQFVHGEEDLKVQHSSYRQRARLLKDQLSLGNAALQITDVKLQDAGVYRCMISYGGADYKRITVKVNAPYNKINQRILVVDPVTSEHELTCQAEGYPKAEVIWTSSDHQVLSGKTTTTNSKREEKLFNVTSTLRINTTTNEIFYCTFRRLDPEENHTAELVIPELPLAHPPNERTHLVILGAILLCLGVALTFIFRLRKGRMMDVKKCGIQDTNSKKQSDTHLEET
Experimental: as §1

in vivo = assay: in vivo; set-up: species or system mouse; settings: female, mouse, in vivo, iv, 40 uCi, total radioactivity, radioactivity uptake
Experimental: (§2) 1.4.10. Animal Models: Animal studies were performed according to the protocols approved by the JHU Animal Care and Use Committee (ACUC). Six-to-eight week old, female, non-obese diabetic severe-combined immunodeficient gamma (NSG) mice were obtained from the JHU Immune Compromised Animal Core. Mice were implanted subcutaneously in opposite sides of the upper flanks with 10×10^6 of CHO-PDL1 and CHO cells. […] 1.4.12. […] For the blocking study, mice were co-injected with 2 mg/kg (50 μg) of unmodified peptide with the radiotracer. The percentage of injected dose per gram of tissue (% ID/g) values were calculated based on signal decay correction and normalization to external [^64Cu] standards, which were measured in triplicate. Biodistribution data shown is mean±the standard error of the mean (SEM).

hPD-L1 tumors [1] = molecular target: T3, hPD-L1 tumors (Homo sapiens, UniProt Q9NZQ7); assay: in vivo; set-up: species or system mouse
T3 construct: expressed in transfected cells; grown as tumours in NSG mice for the in vivo units
T3 sequence (Q9NZQ7 19-290): as above
Experimental: as §2

hPD-L1 tumors [2] = molecular target: T3, hPD-L1 tumors; assay: PET-CT imaging of [64Cu]WL12 in mice with hPD-L1 and CHO tumors; assay type: in vivo, mouse
Experimental: 1.4.10. Animal Models: Animal studies were performed according to the protocols approved by the JHU Animal Care and Use Committee (ACUC). Six-to-eight week old, female, non-obese diabetic severe-combined immunodeficient gamma (NSG) mice were obtained from the JHU Immune Compromised Animal Core. Mice were implanted subcutaneously in opposite sides of the upper flanks with 10×10^6 of CHO-PDL1 and CHO cells. […] 1.4.11. […] Mice were maintained at 1% Isofluorane levels during imaging. PET images were acquired in two bed positions at 10 min/bed in an ARGUS small-animal PET/CT scanner (Sedecal, Madrid, Spain). A CT scan (512 projections) was performed at the end of each PET scan for anatomical co-registration. PET data were reconstructed using the two-dimensional ordered subsets-expectation maximization algorithm (2D-OSEM) and corrected for dead time and radioactive decay. The % ID per cc values were calculated based on a calibration factor obtained from a known radioactive quantity. Final data visualization and image generation was accomplished using Amira® (FEI, Hillsboro, Oreg.).

[3] = molecular target: T4, PD-L1 in A549-iPDL1 cells (Homo sapiens, UniProt Q9NZQ7); assay: Binding studies in doxycycline-inducible A549-iPDL1 cells; assay type: cell-based
T4 construct: expressed in transfected cells; host or cells: A549 NSCLC cells, lentiviral pINDUCER20, G418-selected, doxycycline-induced
T4 sequence (Q9NZQ7 19-290): as above
From the text: To do so, an A549 NSCLC cell line with doxycycline-inducible PD-L1 expression (A549-iPD-L1) was generated. A549 is a Kras G12S lung adenocarcinoma cell line that expresses low PD-L1 at baseline.

[4] = molecular target: T5, PD-L1 in A549-iPDL1 tumors (Homo sapiens, UniProt Q9NZQ7); assay: [64Cu]WL12 PET and biodistribution in A549-iPDL1 and A549 xenografts; assay type: in vivo; settings: 72 h of doxycycline treatment
T5 construct: expressed in transfected cells; host or cells: A549 NSCLC cells, lentiviral pINDUCER20, G418-selected, doxycycline-induced; as xenografts for the in vivo unit
T5 sequence (Q9NZQ7 19-290): as above
From the text: To do so, an A549 NSCLC cell line with doxycycline-inducible PD-L1 expression (A549-iPD-L1) was generated. A549 is a Kras G12S lung adenocarcinoma cell line that expresses low PD-L1 at baseline. It has been transduced with PD-L1 in the all-in-one lentivirus pINDUCER20 vector (Meerbrey, et al., 2011), selected with G418, confirmed for PD-L1 induction by flow cytometry (FIG. 37A) and used for in vitro and in vivo studies. Cy5-PD-L1-mAbs binding to doxycycline-treated A549-iPDL1 cells was blocked by WL12 validating the specificity of WL12 (FIG. 37B). […] Accordingly, it is expected that PET will play a key role in quantifying dynamic changes in PD-L1 expression within the standard clinical work flow, providing a novel way to inform therapy decisions.

PD-L1 in MDAMB231 tumors [5] = molecular target: T6, PD-L1 in MDAMB231 tumors (Homo sapiens, UniProt Q9NZQ7); assay: Tumor PD-L1 engagement by PD-L1 mAbs measured with [64Cu]WL12, MDAMB231 xenografts; assay type: in vivo; settings: mAb 24 h prior, 120 min after tracer injection, ex vivo
T6 construct: MDAMB231 breast cancer cells, which naturally express PD-L1; endogenous in cells; host or cells: MDAMB231 (ATCC); as xenografts in NSG mice for the in vivo units
T6 sequence (Q9NZQ7 19-290): as above
Experimental: To evaluate the effect of dose on tumor PD-L1 occupancy at the tumor, mice bearing MDAMB231 tumors were injected with escalating doses of AtzMab from 0.009 to 24 mg/kg body weight.

[6] = molecular target: T7, PD-L1 in HCC827, H226, hPD-L1 and MDAMB231 cells (Homo sapiens, UniProt Q9NZQ7); assay: [64Cu]WL12 binding to PD-L1-positive cells in the presence of 60 nM mAbs; assay type: cell-based; settings: 60 nM mAb vs PBS control
T7 construct: Each of which naturally expresses PD-L1; endogenous in cells; host or cells: HCC827, H226, MDAMB231 (endogenous) and CHO-hPD-L1 (stably transfected)
T7 sequence (Q9NZQ7 19-290): as above
Experimental: Non-interacting residues are shown in gray. […] Mean fluorescence intensities were determined by flow cytometry.
HCC827 and H226 non-small cell lung cancer (NSCLC) cells also were tested.

PD-L1 in MDAMB231 tumors [7] = molecular target: T6, PD-L1 in MDAMB231 tumors; assay: Tumor PD-L1 engagement by PD-L1 mAbs measured with [64Cu]WL12, MDAMB231 xenografts; assay type: in vivo; settings: AtzMab 20 mg/kg, AveMab 10 mg/kg, DurMab 10 mg/kg, 24 h prior to tracer
[8] = molecular target: T8, PD-L1 in human NSCLC and TNBC xenografts (Homo sapiens, UniProt Q9NZQ7); settings: in vivo; cited from earlier work
T8 construct: host or cells: MDAMB231, SUM149 (TNBC), H2444, H1155 (NSCLC) xenografts in mice
T8 sequence (Q9NZQ7 19-290): as above

[9] = mouse, in vivo, iv, 40 uCi, 1 h

T1 sequence (Q9NZQ7 19-290): as above

CCCC[C@H]1C(=O)N(C)[C@@H](CCCC)C(=O)N[C@@H](CCCNC(=O)CCC(C(=O)O)N2CCN(CC(=O)O)CCN(CC(=O)O)CCN(CC(=O)O)CC2)C(=O)N[C@H](C(=O)NCC(N)=O)CSCC(=O)N[C@@H](Cc2ccc(O)cc2)C(=O)N(C)[C@@H](C)C(=O)N[C@@H](CC(N)=O)C(=O)N2CCC[C@H]2C(=O)N[C@@H](Cc2c[nH]cn2)C(=O)N[C@@H](CC(C)C)C(=O)N2C[C@H](O)C[C@H]2C(=O)N[C@@H](Cc2c[nH]c3ccccc23)C(=O)N[C@@H](CO)C(=O)N[C@@H](Cc2cn(C)c3ccccc23)C(=O)N1C (single isomer, unassigned) [[^64Cu]WL12, metal not drawn]
correlation (r) of mean fluorescence intensity with uptake of radioactivity (PD-L1 in hPD-L1 cells; hPD-L1, MDAMB231, SUM149, CHO cells): 0.9977 | reduction in bound [64Cu]WL12 (PD-L1 in hPD-L1 cells; hPD-L1 cells, 1 μM blocking dose of WL12): > 95% | increase in bound radioactivity compared to negative control CHO cells (PD-L1 in hPD-L1 cells; hPD-L1 cells, 1 h incubation): 43 fold | uptake of the incubated dose (PD-L1 in hPD-L1 cells; hPD-L1 cells, 1 h incubation): > 50% | uptake of radioactivity in MDAMB231 cells compared to SUM149 cells (PD-L1 in MDAMB231 cells): Two-fold higher | tissue uptake at 1 h (in vivo; control CHO tumor): 4 ± 0.6 %ID/g | tissue uptake at 1 h (in vivo; hPD-L1 tumors): 14.9 ± 0.8 %ID/g | tissue uptake at 1 h (in vivo; kidneys): 34.4 ± 3.1 %ID/g | tissue uptake at 1 h (in vivo; liver): 24.2 ± 2.5 %ID/g | reduction in % ID/g values in hPD-L1 tumors (hPD-L1 tumors [1]; co-injected excess WL12 (50 μg, 2 mg/kg), 2 h): > 75% | change of uptake in control CHO tumors with blocking dose (hPD-L1 tumors [1]; co-injected excess WL12, 2 h): no significant difference | affinity for mouse PD-L1 (hPD-L1 tumors [1]; inferred from low uptake in spleen, thymus, brown fat): very low or no affinity | tumor-to-blood ratio (hPD-L1 tumors [1]; [9]): 4.7±1.2 | tumor-to-muscle ratio (hPD-L1 tumors [1]; [9]): 25.6±1.9 | time of increased uptake in hPD-L1 tumors, PET (hPD-L1 tumors [2]; 150 μCi i.v.): as early as 10 min and retained through 24 h post-injection | uptake in hPD-L1 tumor compared to CHO tumor, PET-CT (hPD-L1 tumors [2]; 24 h after injection): Increased uptake | increase in radioactivity uptake, doxycycline treated vs. untreated cells ([3]; A549-iPDL1 cells): 5.5 fold | accumulation in A549-iPDL1 tumors higher than in A549 control tumors [4]: 65%

DurMab: FDA-approved PD-L1 mAb durvalumab
decrease of [64Cu]WL12 binding to doxycycline-treated A549-iPDL1 cells ([3]; 60 nM mAb): 65% | less uptake of [64Cu]WL12 in tumors vs saline controls (PD-L1 in MDAMB231 tumors [5]): approximately 60% | [64Cu]WL12 binding to PD-L1-positive cells [6]: inhibited | [64Cu]WL12 uptake in MDAMB231 xenografts (PD-L1 in MDAMB231 tumors [7]): significantly reduced

[^111In]AtzMab: 111In-radiolabeled atezolizumab
uptake in PD-L1high H2444 vs PD-L1low H1155 NSCLC xenografts [8]: Increased uptake | uptake in PD-L1high MDAMB231 vs PD-L1low SUM149 TNBC xenografts [8]: Increased uptake
